“Also recorded” adds a separate entry of the source. Read-outs that look alike come from different tables or passages of the source. Blank lines part the entries; values can stand above or below the compound they belong to.
Experiments:
[1] = Water solubility / hydrophobicity; assay type: physicochemical
[2] = molecular target: CRAC channel (STIM1/Orail) (Homo sapiens, UniProt Q96D31); conditions: by destabilizing STIM1/Orail interaction; Zhou et al., 2011; cited from earlier work
[3] = tested on: collagen-induced arthritis (CIA); test: Collagen-induced arthritis (CIA) in mice, blinded arthritic index and paw swelling; assay type: in vivo, mouse; conditions: DCPA 21 mg/kg/day
Protocol: Effects on swelling, inflammatory cell invasion in joints, serum cytokines and bone erosion were measured.
Male DBA/1 mice were used, from Harlan Laboratories, Frederick Md. […] Briefly, type II collagen (CII) was injected in complete Freund's adjuvant at 100 μg per animal (˜4 μg/kg) at day 1 and, after 21 days, a booster dose of 100 μg C II in Freund's incomplete adjuvant. […] Mice were monitored for arthritis and scored in a blinded manner. Swelling of paws was be graded on scale from 0 to 4 indicating number of swollen digits. All paws were evaluated, so that the maximal arthritic index per mouse was 16. Additionally, hind paw swelling was measured using digital calipers on day 0, and each day on days 23-40. Analysis of the bones and joints for arthritis was done on H&E stained sections of hind paws, by blinded observation. This scored synovial expansion and inflammation, joint damage including pannus, and bone degradation, each on a scale of 0-3, with maximum score of 9.

[4] = tested on: human or murine osteoclasts; conditions: earlier study (ref 5), cited from earlier work
[5] = tested on: collagen-induced arthritis (CIA); test: Micro-computed tomography and morphometry of paws in CIA mice; assay type: in vivo, mouse; conditions: high dose CIA/DCPA (21 mg)
Protocol: Analysis by micro-computed tomography was as described (14). In brief, paws fixed in Millonig's solution were scanned on a Viva CT40 instrument (Scanco, Bassersdorf, Switzerland) with three-dimensional reconstruction by the manufacturer's instrument-specific software. The scan section increment was 20 μm; 3-D reconstruction used a density cutoff of 211 mg/cm^3. Analysis of trabecular thickness and trabecular spacing used the plate model.

[6] = tested on: osteoclasts and CD3 T cells in tissue sections; test: Antibody labeling of sections (anti-ATPa3/TCIRG osteoclasts, anti-CD3 T cells) in CIA mice; assay type: in vivo, mouse; conditions: high dose CIA/DCPA relative to CIA/placebo
Protocol: Antibodies used were, for TCIRGI, mouse monoclonal (clone 6H3) antibody (Sigma-Aldrich) at 1:100 dilution. For CD3, anti-CD3 mouse monoclonal antibody (PC3/188A) against synthetic peptide spanning amino acids 156-168 of the cytoplasmic domain of human CD3-ε chain was used, at 1:100 dilution. Briefly, sections were blocked in PBS with 2% hydrogen peroxide for 5 minutes and then in PBS with 2% BSA for two hours, then reacted overnight with antibodies at indicated concentrations in PBS with 0.01% tween 20, and after washing with biotinylated anti-mouse at 1:1000 dilution. Then streptavidin-horseradish peroxidase, and diaminobenzidine substrate were added. Hematoxylin and eosin counterstain was use to show tissue features. Imaging used a Nikon TE2000 inverted microscope, with 14-bit 2048×2048 pixel monochrome CCD and RGB filters to reconstruct color (Spot, Sterling Heights, Mich.).

[7] = humans, cited from earlier work
[8] = tested on: serum inflammatory cytokines; test: Serum analysis for cytokines in CIA mice (V-PLEX panels); assay type: in vivo, mouse
Protocol: Heart blood at sacrifice, 40 days, was used for analysis. Plasma was separated by centrifiigation and frozen in aliquots at −20° C. until used. Production of anti-CII antibodies was evaluated by ELISA (Rheumera, Astarte Biologies, Redmond, Wash.). Production of cytokines was evaluated using V-PLEX panels in 96-well plates (Meso Scale Discovery, Rockville, Md.).

[9] = General health of treated CIA mice (weight, activity); assay type: in vivo, mouse; conditions: about three weeks of DCPA
Protocol: Male DBA/1 mice were used, from Harlan Laboratories, Frederick Md. […] Briefly, type II collagen (CII) was injected in complete Freund's adjuvant at 100 μg per animal (˜4 μg/kg) at day 1 and, after 21 days, a booster dose of 100 μg C II in Freund's incomplete adjuvant. Inflammation was apparent 4-8 days after the second dose, in 80% of treated joints. […] Mice were monitored for arthritis and scored in a blinded manner. Swelling of paws was be graded on scale from 0 to 4 indicating number of swollen digits. All paws were evaluated, so that the maximal arthritic index per mouse was 16. Additionally, hind paw swelling was measured using digital calipers on day 0, and each day on days 23-40. Analysis of the bones and joints for arthritis was done on H&E stained sections of hind paws, by blinded observation. This scored synovial expansion and inflammation, joint damage including pannus, and bone degradation, each on a scale of 0-3, with maximum score of 9. […] For histological analysis, two paws from each animal were analyzed separately and blindly, and are calculated as two specimens per animal; however, if averages are used with n=animal number, there was no effect on differences (not shown).

[10] = tested on: collagen-induced arthritis (CIA); test: Histology of H&E stained hind paw sections in CIA mice, blinded score; assay type: in vivo, mouse
Protocol: Male DBA/1 mice were used, from Harlan Laboratories, Frederick Md. […] Briefly, type II collagen (CII) was injected in complete Freund's adjuvant at 100 μg per animal (˜4 μg/kg) at day 1 and, after 21 days, a booster dose of 100 μg C II in Freund's incomplete adjuvant. […] Mice were monitored for arthritis and scored in a blinded manner. Swelling of paws was be graded on scale from 0 to 4 indicating number of swollen digits. All paws were evaluated, so that the maximal arthritic index per mouse was 16. Additionally, hind paw swelling was measured using digital calipers on day 0, and each day on days 23-40. Analysis of the bones and joints for arthritis was done on H&E stained sections of hind paws, by blinded observation. This scored synovial expansion and inflammation, joint damage including pannus, and bone degradation, each on a scale of 0-3, with maximum score of 9. […] For histological analysis, two paws from each animal were analyzed separately and blindly, and are calculated as two specimens per animal; however, if averages are used with n=animal number, there was no effect on differences (not shown).
Hind paws of animals were decalcified, paraffin embedded, cut, and stained with hematoxylin and eosin (FIGS. 2A-C). […] Therefore, blinded qualitative grading was used. […]

TRPM4 = TRPM4 (Homo sapiens, UniProt Q8TD43); conditions: cited from earlier work
Sequence of TRPM4 (Q8TD43 whole entry, species assumed): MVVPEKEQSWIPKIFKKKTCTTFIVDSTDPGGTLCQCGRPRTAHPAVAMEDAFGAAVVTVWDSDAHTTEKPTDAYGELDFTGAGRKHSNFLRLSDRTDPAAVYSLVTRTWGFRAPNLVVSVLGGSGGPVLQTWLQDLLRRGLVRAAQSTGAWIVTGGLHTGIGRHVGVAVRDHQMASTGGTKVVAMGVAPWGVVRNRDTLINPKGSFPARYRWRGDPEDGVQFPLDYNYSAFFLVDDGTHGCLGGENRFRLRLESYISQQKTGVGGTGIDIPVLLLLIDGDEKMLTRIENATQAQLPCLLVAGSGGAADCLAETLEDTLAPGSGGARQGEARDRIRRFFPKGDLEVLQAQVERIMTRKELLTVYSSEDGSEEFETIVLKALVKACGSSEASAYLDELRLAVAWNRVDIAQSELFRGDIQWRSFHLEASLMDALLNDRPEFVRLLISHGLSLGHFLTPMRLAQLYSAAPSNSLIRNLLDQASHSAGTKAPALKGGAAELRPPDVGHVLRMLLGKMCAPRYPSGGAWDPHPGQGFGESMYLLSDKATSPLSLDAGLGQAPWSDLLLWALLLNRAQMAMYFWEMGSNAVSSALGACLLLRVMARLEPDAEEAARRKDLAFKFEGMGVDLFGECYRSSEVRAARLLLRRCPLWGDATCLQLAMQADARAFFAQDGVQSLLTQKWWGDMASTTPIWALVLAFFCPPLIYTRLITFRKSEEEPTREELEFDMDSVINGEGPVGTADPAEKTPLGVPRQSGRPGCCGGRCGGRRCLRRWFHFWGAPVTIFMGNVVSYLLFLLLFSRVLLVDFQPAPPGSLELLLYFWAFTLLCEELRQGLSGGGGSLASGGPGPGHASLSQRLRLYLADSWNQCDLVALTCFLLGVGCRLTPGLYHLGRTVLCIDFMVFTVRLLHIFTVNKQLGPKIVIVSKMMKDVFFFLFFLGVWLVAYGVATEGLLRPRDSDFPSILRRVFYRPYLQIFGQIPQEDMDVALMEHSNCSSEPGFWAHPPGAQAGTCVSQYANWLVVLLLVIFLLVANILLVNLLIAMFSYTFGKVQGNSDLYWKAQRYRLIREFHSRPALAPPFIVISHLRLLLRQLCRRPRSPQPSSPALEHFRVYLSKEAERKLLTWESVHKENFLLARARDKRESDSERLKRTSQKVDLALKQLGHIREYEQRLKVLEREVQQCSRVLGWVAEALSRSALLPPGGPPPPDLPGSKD

CIA = conditions: 10 mg/kg, cited from earlier work
OCL formation = test: OCL (osteoclast) formation assay; assay type: cell-based

Sequence of CRAC channel (STIM1/Orail) (Q96D31 whole entry): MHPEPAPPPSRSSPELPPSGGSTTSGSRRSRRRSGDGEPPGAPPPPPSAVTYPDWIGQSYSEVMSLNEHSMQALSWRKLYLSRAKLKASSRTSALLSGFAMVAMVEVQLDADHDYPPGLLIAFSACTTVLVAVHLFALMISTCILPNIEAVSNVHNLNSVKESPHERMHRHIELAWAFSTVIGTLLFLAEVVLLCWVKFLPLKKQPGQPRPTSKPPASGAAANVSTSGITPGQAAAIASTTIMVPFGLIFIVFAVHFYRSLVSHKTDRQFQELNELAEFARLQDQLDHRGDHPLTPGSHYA

- water solubility compared with DCPA [1]: more water soluble compound than DCPA
Compound: O=C(O)CC(=O)Nc1ccc(Cl)c(Cl)c1 [DCOPA, 3-(3,4-dichloroanilino)-3-oxopropanoic acid]

Compound: CCC(=O)Nc1ccc(Cl)c(Cl)c1 [DCPA, N-(3,4-dichlorophenyl)propanamide]
- CRAC channel activation [2]: inhibits CRAC channel activation
- overall swelling of joints [3]: reduced by a similar amount
- time of maximal effect after collagen booster [3]: 12 to 17 days
- osteoclast differentiation / formation in vitro [4]: inhibits osteoclast formation in vitro
- osteoclast differentiation / formation in vitro ([4]; listed as 3,4-dichloropropionaniline): reduced differentiation of bone degrading osteoclasts
- bone volume/total volume by micro-CT ([5]; p=0.03 vs CIA/placebo): statistically greater than CIA/placebo animals
- bone density by micro-CT ([5]; sacrifice day 40): indistinguishable from untreated controls
- osteoclast surface area (ATPa3 labeling) [6]: large and statistically significant reduction
- toxicity of intermittent exposure in mg/kg quantities [7]: minimal apparent toxicity
- dose that can cause fatal methemoglobinemia ([7]; massive doses): 4 to 5 g/kg
- effect on serum cytokines (TNF-α, IL-1, IL-6, CXCL1, IFN-γ) ([8]; DCPA 21 mg/kg/day, day 40 serum, vs CIA/placebo): no effect; also recorded: did not affect
- effect on cytokine production of IL-12p70 or IL-10 ([8]; DCPA, serum of CIA mice): did not significantly affect
- adverse effects on animal weight or activity [9]: no adverse effects
- reduction of bone and cartilage damage in sections of animal feet ([10]; DCPA 21 mg/kg/day): −50%
- histological damage score ([10]; ankle bone of one animal, high dose CIA/DCPA (21 mg DCPA), 40 days, scale 0-9): 4

Compound: Cc1nnsc1C(=O)Nc1ccc(-n2nc(C(F)(F)F)cc2C(F)(F)F)cc1 [BTP-2, 4-methy-4-[3,5-bis(trifluorometliyl)-1H-pyrazol-1-yl]-1,2,3-thiadiazole-5-carboxanilide]
- concentration suppressing cytokines including 1L2 and calcium influx by TRPM4 (TRPM4): low nanomolar concentrations
- inflammatory cytokines IL1, IL6 and TNF-α (CIA; 10 days after induction): near-baseline levels
- effect on CIA (CIA): suppressed CIA

Compound: CN(C(=O)CC(=O)O)c1ccc(Cl)c(Cl)c1 [N-MeDCOPA]
- inhibition of OCL formation (OCL formation; 100 μM): shows inhibition of OCL formation

- hydrophobicity [1]: very hydrophobic
Compound: N-methyl-DCPA [N-MeDCPA]
- toxicity compared with DCPA (OCL formation; OCL assay findings): less toxic than DCPA
- effect in OCL assay compared with DCPA (OCL formation; same doses as DCPA, took longer): looked as good as DCPA
